Source: paper PMC8126654, “Novel Pan-Pim Kinase Inhibitors With Imidazopyridazine and Thiazolidinedione Structure Exert Potent Antitumor Activities” (Frontiers in Pharmacology, 2021)
pIC50: −log10 of the molar value. Like-named read-outs stand apart in the source and are kept apart here. One block for each compound: values may come before it.

Legend:
[1] = cited from earlier work
MV-4-11 xenograft model = experiment: In vivo xenograft study, MV-4-11; set-up: species or system BALB/cSlc-nu/nu mice; conditions: for TGI (tumor growth inhibition): intravenously every 4 days
Method: (§1) For evaluation of antitumor activity, MV-4-11 (5 × 10^6 cells) or PC-3 cells (2 × 10^6 cells) were injected subcutaneously in the inguinal region of 6-week-old male BALB/cSlc-nu/nu mice (Japan SLC, Inc., Shizuoka, Japan), with Matrigel (BD Biosciences, San Jose, CA, USA). When the average tumor volume (length × width^2 × 1/2) had reached 40 to 120 mm^3, animals were randomized into groups of seven mice for vehicle control group of MV-4-11 xenograft model or five mice for the other groups (day 1). Test compounds were injected into the tail vein every 4 days from day 1, with an administration volume of 10 ml/kg. Tumor volumes were measured 2 times per week and body weights of the mice were monitored on 2 or 3 times per week as an indicator of tolerability. On day 22 or 16, antitumor activity was evaluated by weighing tumor tissues. Tumor growth inhibition, TGI (%), was calculated according to formula (1 − T/C) × 100, where T and C are the mean tumor weights for the experimental and vehicle control groups, respectively. The differences between the mean tumor weights for comparing groups were analyzed using Dunnett’s test, where P < 0.05 was considered to be significant.

PC-3 xenograft model = experiment: In vivo xenograft study, PC-3; set-up: species or system BALB/cSlc-nu/nu mice; conditions: for TGI (tumor growth inhibition): intravenously every 4 days
Method: as §1

Pim-1 [2] = target: T1, Pim-1 (Homo sapiens, UniProt P11309); experiment: In vitro Pim kinase activity assay (FRET-based Z'-LYTE), Pim-1; format: biochemical; conditions: ATP 400 µM; read-out: IC50 values for enzyme activities, Pim-1
T1 construct: purchased Life Technologies; Thermo Fisher Scientific Inc
Method: (§2) The inhibition ratios of test compounds for Pim-1, 2 (Life Technologies; Thermo Fisher Scientific Inc., MA, United States), 3 (Merck KgaA), and FLT3 (Life Technologies; Thermo Fisher Scientific Inc., MA, United States) were determined using a modified FRET-based Z′-LYTE kinase assay kit (Invitrogen; Thermo Fisher Scientific Inc.). The Ser/Thr 7 peptide and Tyr-2 peptide were used as substrates for Pim kinases and FLT3, respectively. The reactions were carried out in a 384-well plate with a 10 µL reaction volume per well containing 1 µM substrates in 50 mM HEPES buffer with pH 7.5, 0.01% BRIJ-35, 10 mM MgCl2, 1 mM EGTA, and an appropriate amount of kinases (Pim-1: 0.03 μg/ml, Pim-2: 0.2 μg/ml, Pim-3: 0.2 μg/ml, FLT3: 0.1 μg/ml) with test compounds. The final reaction concentrations of ATP were 400, 5, 100, and 500 µM for Pim-1, 2, 3, and FLT3 respectively. After 1 h incubation, reactions were developed and terminated, and fluorescence ratios were calculated following the manufacturer’s protocol.

Pim-2 = target: T2, Pim-2 (Homo sapiens, UniProt Q9P1W9); experiment: In vitro Pim kinase activity assay (FRET-based Z'-LYTE), Pim-2; format: biochemical; conditions: ATP 5 µM; read-out: IC50 values for enzyme activities, Pim-2
T2 construct: purchased Life Technologies; Thermo Fisher Scientific Inc
Method: as §2

Pim-3 = target: T3, Pim-3 (Homo sapiens, UniProt Q86V86); experiment: In vitro Pim kinase activity assay (FRET-based Z'-LYTE), Pim-3; format: biochemical; conditions: ATP 100 µM; read-out: IC50 values for enzyme activities, Pim-3
T3 construct: purchased Merck KgaA
Method: as §2

Pim-1 [3] = target: T1, Pim-1; experiment: Binding detection based on SPR platform (BIACORE T200); conditions: 6.5, 13, 25, or 50 µM
Method: The interactions between test compounds and Pim-1 were detected by surface plasmon resonance platform BIACORE T200 (GE Healthcare Life Sciences, Buckinghamshire, England). Pim-1 was diluted to 20 μg/ml in 10 mM acetate buffer (pH 5.0), and then immobilized as a ligand in the N-hydroxysuccinimide/ethyl 3-(3-dimethylaminopropyl) carbodiimide-pre-activated CM5 sensor chip, following blocking by ethanolamine. Test compounds were diluted at 6.5, 13, 25, or 50 µM in a vehicle of 5% DMSO (v/v) in phosphate buffered saline (PBS). The dilutions were injected as analyte flow liquid phase with PBS containing 5% DMSO (v/v) as running buffer at a constant flow rate of 30 μL/min. A 2-min association time was set. The data were collected by Biacore Control Software. Kinetics and affinity parameters were evaluated with the Langmuir model (1:1) using BIA evaluation software.

[4] = test system: phosphorylation level of 4E-BP in PC-3 tumors; experiment: Pharmacodynamics study in PC-3 xenograft tumors (phospho-4E-BP immunoblot); format: in vivo, mice; conditions: single dose 187.5 mg/kg
Method: (§3) Cells were plated overnight and then treated with test compounds for 4 hours. Then, the cells were lyzed in solubilization buffer [10 mM Tris-HCl (pH7.4), 0.1% (w/v) NP-40, 0.1% (w/v) sodium deoxycholate, 0.1% (w/v) SDS, 0.15 M NaCl, 1 mM EDTA, 10 µM aprotinin] with phosphatase inhibitor cocktails (Nakarai Tesque, Kyoto, Japan), and subjected to SDS-PAGE using 15% (w/v) gels under reducing conditions. The separated proteins were electrotransferred to Immobilon transfer membranes (Merck Millipore, Darmstadt, Germany). Then, each membrane was reacted with primary antibodies, which were subsequently complexed with appropriate horseradish peroxidase-conjugated secondary antibodies. Signals were detected using the ECL Western Blotting Detection System (GE Healthcare Life Sciences) and protein expression was quantified with a LAS-3000 Luminescent Image Analyzer (GE Healthcare Life Sciences). The protein bands were quantified using ImageQuant TL software (GE Healthcare Life Sciences).
Tumors were resected 1, 2, 6, or 24 h after injection and lyzed for immunoblot analysis.

FLT3 = target: T4, FLT3 (Homo sapiens, UniProt P36888); experiment: FLT3 kinase activity assay (FRET-based Z'-LYTE); format: biochemical; conditions: ATP 500 µM; read-out: IC50 against FLT3 kinase
T4 construct: purchased Life Technologies; Thermo Fisher Scientific Inc
T4 sequence (P36888 27-993): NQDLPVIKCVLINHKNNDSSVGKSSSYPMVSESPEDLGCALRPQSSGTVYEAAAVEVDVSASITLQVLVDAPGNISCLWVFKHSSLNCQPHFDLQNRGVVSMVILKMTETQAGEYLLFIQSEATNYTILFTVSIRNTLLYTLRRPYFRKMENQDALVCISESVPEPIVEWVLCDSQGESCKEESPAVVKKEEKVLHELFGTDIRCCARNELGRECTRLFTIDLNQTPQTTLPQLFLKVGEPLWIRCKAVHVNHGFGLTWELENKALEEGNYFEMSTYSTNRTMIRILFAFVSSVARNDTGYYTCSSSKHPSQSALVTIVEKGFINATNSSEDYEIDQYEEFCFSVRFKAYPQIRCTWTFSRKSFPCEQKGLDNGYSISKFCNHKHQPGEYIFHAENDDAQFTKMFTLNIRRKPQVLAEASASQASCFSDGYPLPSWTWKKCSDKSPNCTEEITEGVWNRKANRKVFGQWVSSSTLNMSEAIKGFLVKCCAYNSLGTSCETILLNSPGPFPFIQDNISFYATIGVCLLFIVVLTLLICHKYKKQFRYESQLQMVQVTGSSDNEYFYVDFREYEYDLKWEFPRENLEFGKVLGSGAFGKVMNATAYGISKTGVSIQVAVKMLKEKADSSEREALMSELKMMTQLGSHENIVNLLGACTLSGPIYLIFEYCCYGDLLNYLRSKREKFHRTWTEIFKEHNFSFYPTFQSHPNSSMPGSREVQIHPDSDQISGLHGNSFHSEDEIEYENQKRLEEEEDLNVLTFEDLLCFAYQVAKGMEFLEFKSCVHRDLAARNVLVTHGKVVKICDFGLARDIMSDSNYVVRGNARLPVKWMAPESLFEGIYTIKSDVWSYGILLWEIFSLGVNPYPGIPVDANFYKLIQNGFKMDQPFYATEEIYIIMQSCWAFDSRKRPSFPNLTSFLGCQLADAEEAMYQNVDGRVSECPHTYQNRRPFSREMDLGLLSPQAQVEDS
Method: as §2

cancer cell lines = experiment: Cytotoxicity assay for cell survival (cancer cell proliferation); format: cell-based; conditions: 96 hours; read-out: IC50 for proliferation of a broad spectrum of cancer cell lines (range)
Description: We obtained colon cancer HCT116 and HT-29 cells, prostate cancer PC-3, DU145, and LNCaP cells, lung cancer NCI-H460 and NCI-H522 cells, breast cancer MDA-MB-231 cells, AML MV-4-11 cells, and chronic myeloid leukemia (CML) K-562, MEG-01, and KU812 cells from American Type Culture Collection (Manassas, VA, United States); stomach cancer MKN45 cells from the Health Science Research Resources Bank (Osaka, Japan); pancreatic cancer AsPC-1 and MIA PaCa-2, and lung cancer A549 cells from DS Pharma Biomedical (Osaka, Japan). All cell lines were cultured in RPMI1640 medium (Life Technologies; Thermo Fisher Scientific Inc.) with 10% (v/v) fetal bovine serum (FBS; Sigma-Aldrich; Merck KgaA) at 37°C in 5% CO2.
Cells were seeded in 96-well plates and test compounds were added to the cultures at several concentrations.

PC-3 = experiment: Immunoblot analysis of phosphorylation of Pim kinase substrates, PC-3; format: cell-based; conditions: PC-3, 4 h
Method: as §3

[5] = experiment not completed (data not shown)

T2 sequence (Q9P1W9 whole entry): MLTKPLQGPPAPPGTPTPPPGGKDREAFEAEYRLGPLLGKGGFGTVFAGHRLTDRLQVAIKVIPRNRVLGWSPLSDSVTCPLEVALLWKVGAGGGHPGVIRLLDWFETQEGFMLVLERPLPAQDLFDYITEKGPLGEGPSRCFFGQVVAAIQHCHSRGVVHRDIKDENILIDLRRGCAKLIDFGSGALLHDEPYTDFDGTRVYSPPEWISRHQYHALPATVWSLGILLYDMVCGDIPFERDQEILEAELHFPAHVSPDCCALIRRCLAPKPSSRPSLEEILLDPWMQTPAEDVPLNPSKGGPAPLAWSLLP
T1 sequence (P11309 whole entry): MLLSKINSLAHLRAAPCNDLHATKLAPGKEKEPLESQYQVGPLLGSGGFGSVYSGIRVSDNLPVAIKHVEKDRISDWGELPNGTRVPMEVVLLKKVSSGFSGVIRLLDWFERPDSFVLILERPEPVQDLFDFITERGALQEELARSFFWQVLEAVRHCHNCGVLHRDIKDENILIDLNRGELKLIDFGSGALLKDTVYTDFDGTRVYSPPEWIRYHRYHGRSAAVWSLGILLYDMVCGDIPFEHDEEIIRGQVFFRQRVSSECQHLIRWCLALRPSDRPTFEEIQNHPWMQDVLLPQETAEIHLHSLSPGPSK

Compound: N[C@@H]1CCCN(c2c(/C=C3\SC(=O)NC3=O)cccc2-c2ccccc2)C1 [AZD1208]
Reason for termination of clinical study ([1]; ref NCT01489722): lack of clinical response

Compound: CN1CCC(CNc2ccc3ncc(-c4cccc(OC(F)(F)F)c4)n3n2)CC1 [SGI-1776]
Reason for termination of clinical study ([1]; ref NCT00848601): dose-limiting toxicity

Compound: CN1CCN(c2ccc(-c3cnc4ccc(/C=C5\SC(=O)NC5=O)nn34)cc2)CC1.CS(=O)(=O)O [YPC-21440 MsOH, (Z)-5-([3-{4-(4-methylpiperazin-1-yl)phenyl}imidazo[1,2-b]pyridazin-6-yl]methylene)thiazolidine-2,4-dione methanesulfonate]
TGI (tumor growth inhibition) (MV-4-11 xenograft model; 62.5 mg/kg/dose): 26% | Body weight decrease (as much as) compared with day 1 (MV-4-11 xenograft model; 125 mg/kg/dose): 5.2 ± 10% | TGI (tumor growth inhibition) (MV-4-11 xenograft model; 125 mg/kg/dose): 60% | Body weight decrease (as much as) compared with day 1 (MV-4-11 xenograft model; 187.5 mg/kg/dose): 7.1 ± 21% | TGI (tumor growth inhibition) (MV-4-11 xenograft model; 187.5 mg/kg/dose): 77% | Body weight loss (PC-3 xenograft model; [5]): serious body weight loss | Tumor growth (PC-3 xenograft model; [5]): tended to be suppressed

Compound: CCN1CCN(c2ccc(-c3cnc4ccc(/C=C5\SC(=O)NC5=O)nn34)cc2F)CC1.CS(=O)(=O)O [YPC-21817 MsOH, (Z)-5-([3-{4-(4-ethylpiperazin-1-yl)-3-fluorophenyl}imidazo[1,2-b]pyridazin-6-yl]methylene)thiazolidine-2,4-dione methanesulfonate]
TGI (tumor growth inhibition) (MV-4-11 xenograft model; 62.5 mg/kg/dose): 20% | TGI (tumor growth inhibition) (MV-4-11 xenograft model; 125 mg/kg/dose): 39% | TGI (tumor growth inhibition) (MV-4-11 xenograft model; 187.5 mg/kg/dose): 70% | Serious decrease in body weight (MV-4-11 xenograft model; evaluation period): not observed | TGI (tumor growth inhibition) (PC-3 xenograft model; 62.5 mg/kg/dose): 0.92% | TGI (tumor growth inhibition) (PC-3 xenograft model; 125 mg/kg/dose): 8.4% | TGI (tumor growth inhibition) (PC-3 xenograft model; 187.5 mg/kg/dose): 48% | Serious decrease in body weight (PC-3 xenograft model; evaluation period): not observed | Phosphorylation level of 4E-BP in tumors ([4]; 1, 2, and 6 hours after administration): signigficantly decreased | Phosphorylation level of 4E-BP in tumors ([4]; 24 hours after administration): almost completely recovered

Continued, in another order:

pIC50 (Pim-1 [2]): 6.37 | pIC50 (Pim-2): 6.31 | pIC50 (Pim-3): 6.44
Compound: CCCCCN1CCN(c2ccc(-c3cnc4ccc(/C=C5\SC(=O)NC5=O)nn34)cc2F)CC1 [YPC-21813, (Z)-5-([3-{4-(4-pentylpiperazin-1-yl)-3-fluorophenyl}imidazo[1,2-b]pyridazin-6-yl]methylene)thiazolidine-2,4-dione]

pIC50 (Pim-1 [2]): < 5.74 | pIC50 (Pim-2): < 5.74 | pIC50 (Pim-3): < 5.74 | Binding to Pim-1 by SPR (Biacore) (Pim-1 [3]): did not bind to Pim-1
Compound: CCCCCCCCCCN1CCN(c2ccc(-c3cnc4ccc(/C=C5\SC(=O)NC5=O)nn34)cc2F)CC1 [YPC-21814, (Z)-5-([3-{4-(4-decylpiperazin-1-yl)-3-fluorophenyl}imidazo[1,2-b]pyridazin-6-yl]methylene)thiazolidine-2,4-dione]

pIC50 (FLT3): 5.70 | Phosphorylation levels of Bad, 4EBP, and p21 (PC-3): decreased
Compound: CCN1CCN(c2ccc(-c3cnc4ccc(/C=C5\SC(=O)NC5=O)nn34)cc2F)CC1 [YPC-21817, (Z)-5-([3-{4-(4-ethylpiperazin-1-yl)-3-fluorophenyl}imidazo[1,2-b]pyridazin-6-yl]methylene)thiazolidine-2,4-dione]
pIC50 (cancer cell lines): 6.19 to 7.62

pIC50 (Pim-1 [2]): 6.92 | pIC50 (Pim-2): 6.72 | pIC50 (Pim-3): 6.27
Compound: CN1CCN(c2ccc(-c3cnc4ccc(/C=C5\SC(=O)NC5=O)nn34)cc2C(C)(C)C)CC1 [YPC-21867, (Z)-5-([3-{3-(tert-butyl)-4-(4-methylpiperazin-1-yl)phenyl}imidazo[1,2-b]pyridazin-6-yl]methylene)thiazolidine-2,4-dione]
